Columns and labels:
[1] = Inhibition of CDK9/cyclin T (unknown origin) using […] incubated for 40 mins in presence of ATP by Kinase-Glo assay; design: species or system Homo sapiens
HeLa [2] = assay: Induction of cell cycle arrest in human HeLa cells assessed as accumulation at S phase at 0.9 uM incubated for 24 hrs by PI staining based flow cytometry (reference value: 17.84 +/- 1.89 %); type: functional
[3] = MRT (0 to infinity) in Sprague-Dawley rat at 2 mg/kg, iv measured for 36 hrs by MRM analysis; type: ADME, organism-based; settings: in vivo
[4] = Toxicity in Balb/c-nu nude mouse xenografted with human HCT-116 cells assessed as toxicity in kidney at 35 to 70 mg/kg/day, po treated for 30 days by H and E staining based analysis; type: organism-based; settings: in vivo, 720 h, dose 35-70 mg/kg/day, time 30 day
[5] = molecular target: CDK9/cyclin T1 (Homo sapiens) (UniProt O60563+P50750); assay: Inhibition of CDK9/cyclin T (unknown origin) using […] at 1 uM incubated for 40 mins in presence of ATP by Kinase-Glo assay relative to control; type: protein-complex assay
HeLa [6] = assay: Induction of cell cycle arrest in human HeLa cells assessed as accumulation at sub-G1 phase at 0.9 uM incubated for 24 hrs by PI staining based flow cytometry (reference value: 1.89 +/- 0.56 %); type: functional
[7] = Toxicity in Balb/c-nu nude mouse xenografted with human HCT-116 cells assessed as body weight loss at 35 to 70 mg/kg/day, po treated for 30 days; type: organism-based; settings: in vivo, 720 h, dose 35-70 mg/kg/day, time 30 day
[8] = AUC (0 to t) in Sprague-Dawley rat at 2 mg/kg, iv measured for 36 hrs by MRM analysis; type: ADME, organism-based; settings: in vivo
[9] = Inhibition of CDK1/cyclin B (unknown origin) using […] incubated for 40 mins in presence of ATP by Kinase-Glo assay; design: species or system Homo sapiens

- IC50 [1]: 9 nM
- MRT inf [3]: 2.8 h
- inhibition [5]: 99%
- AUC(0-t) at 36 h [8]: 33.5 ng·h/mL
- IC50 [9]: 53 nM
SMILES: Cc1cnc(Nc2ccc(S(N)(=O)=O)cc2)nc1Nc1nccs1
- Activity (HeLa [2]): 21.67%
- Activity [4]: Non-toxic
- Activity (HeLa [6]): 1.81%
- Activity [7]: Non-toxic
